Assay results as given in PubChem BioAssay (NCI).
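Results reflect a 48-hour exposure of cells in 96-well plates to compound at five concentrations. TGI denotes the concentration required for complete inhibition of growth.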

Assays:
Assay in all cases: NCI anticancer screen, dose series, 48 h
786-0 renal = test system: 786-0 renal
A498 renal = test system: A498 renal
A549 NSCLC = test system: A549 NSCLC
ACHN renal = test system: ACHN renal
BT-549 breast = test system: BT-549 breast
CAKI-1 renal = test system: CAKI-1 renal
CCRF-CEM leukemia = test system: CCRF-CEM leukemia
COLO 205 colon = test system: COLO 205 colon
DU-145 prostate = test system: DU-145 prostate
EKVX NSCLC = test system: EKVX NSCLC
HCC-2998 colon = test system: HCC-2998 colon
HCT-116 colon = test system: HCT-116 colon
HCT-15 colon = test system: HCT-15 colon
HL-60(TB) leukemia = test system: HL-60(TB) leukemia
HOP-62 NSCLC = test system: HOP-62 NSCLC
HS 578T breast = test system: HS 578T breast
HT29 colon = test system: HT29 colon
IGROV1 ovarian = test system: IGROV1 ovarian
K-562 leukemia = test system: K-562 leukemia
KM12 colon = test system: KM12 colon
LOX IMVI melanoma = test system: LOX IMVI melanoma
M14 melanoma = test system: M14 melanoma
MALME-3M melanoma = test system: MALME-3M melanoma
MCF7 breast = test system: MCF7 breast
MDA-MB-231 breast = test system: MDA-MB-231 breast
MDA-MB-435 = test system: MDA-MB-435
MDA-N = test system: MDA-N
MOLT-4 leukemia = test system: MOLT-4 leukemia
NCI-H226 lung = test system: NCI-H226 lung
NCI-H23 lung = test system: NCI-H23 lung
NCI-H460 lung = test system: NCI-H460 lung
NCI-H522 lung = test system: NCI-H522 lung
NCI/ADR-RES ovarian = test system: NCI/ADR-RES ovarian
OVCAR-3 ovarian = test system: OVCAR-3 ovarian
OVCAR-4 ovarian = test system: OVCAR-4 ovarian
OVCAR-5 ovarian = test system: OVCAR-5 ovarian
OVCAR-8 ovarian = test system: OVCAR-8 ovarian
PC-3 prostate = test system: PC-3 prostate
RPMI-8226 leukemia = test system: RPMI-8226 leukemia
SF-268 CNS = test system: SF-268 CNS
SF-295 CNS = test system: SF-295 CNS
SF-539 CNS = test system: SF-539 CNS
SK-MEL-2 melanoma = test system: SK-MEL-2 melanoma
SK-MEL-28 melanoma = test system: SK-MEL-28 melanoma
SK-MEL-5 melanoma = test system: SK-MEL-5 melanoma
SK-OV-3 ovarian = test system: SK-OV-3 ovarian
SN12C renal = test system: SN12C renal
SNB-19 CNS = test system: SNB-19 CNS
SR leukemia = test system: SR leukemia
SW-620 colon = test system: SW-620 colon
T-47D breast = test system: T-47D breast
TK-10 renal = test system: TK-10 renal
U251 CNS = test system: U251 CNS
UACC-257 melanoma = test system: UACC-257 melanoma
UACC-62 melanoma = test system: UACC-62 melanoma
UO-31 renal = test system: UO-31 renal
RXF 393 renal = test system: RXF 393 renal

Structure (SMILES): CN(CCN1CCCC1)C1CCc2cc(Cl)c(Cl)cc2C1 (configuration not stated)
- TGI (786-0 renal): 28.3 µM
- TGI (A498 renal): 27.1 µM
- TGI (A549 NSCLC): 32.4 µM
- TGI (ACHN renal): 30.5 µM
- TGI (BT-549 breast): 28.5 µM
- TGI (CAKI-1 renal): 33.6 µM
- TGI (CCRF-CEM leukemia): > 100 µM
- TGI (COLO 205 colon): 17.2 µM
- TGI (DU-145 prostate): 26 µM
- TGI (EKVX NSCLC): 47.6 µM
- TGI (HCC-2998 colon): 18.2 µM
- TGI (HCT-116 colon): 25.5 µM
- TGI (HCT-15 colon): 26.5 µM
- TGI (HL-60(TB) leukemia): 37.4 µM
- TGI (HOP-62 NSCLC): 32.7 µM
- TGI (HS 578T breast): 56.2 µM
- TGI (HT29 colon): 22.8 µM
- TGI (IGROV1 ovarian): 29.3 µM
- TGI (K-562 leukemia): > 100 µM
- TGI (KM12 colon): 40.4 µM
- TGI (LOX IMVI melanoma): 29.7 µM
- TGI (M14 melanoma): 31.5 µM
- TGI (MALME-3M melanoma): 33.6 µM
- TGI (MCF7 breast): 29 µM
- TGI (MDA-MB-231 breast): 34.7 µM
- TGI (MDA-MB-435): 37.5 µM
- TGI (MDA-N): 26.2 µM
- TGI (MOLT-4 leukemia): > 100 µM
- TGI (NCI-H226 lung): 34.8 µM
- TGI (NCI-H23 lung): 30.1 µM
- TGI (NCI-H460 lung): 31.5 µM
- TGI (NCI-H522 lung): 33 µM
- TGI (NCI/ADR-RES ovarian): 28 µM
- TGI (OVCAR-3 ovarian): 32.1 µM
- TGI (OVCAR-4 ovarian): 51.1 µM
- TGI (OVCAR-5 ovarian): 31.4 µM
- TGI (OVCAR-8 ovarian): 30.8 µM
- TGI (PC-3 prostate): 52.4 µM
- TGI (RPMI-8226 leukemia): 55.4 µM
- TGI (SF-268 CNS): 34 µM
- TGI (SF-295 CNS): 29.1 µM
- TGI (SF-539 CNS): 31.4 µM
- TGI (SK-MEL-2 melanoma): 35.2 µM
- TGI (SK-MEL-28 melanoma): 67.9 µM
- TGI (SK-MEL-5 melanoma): 24.8 µM
- TGI (SK-OV-3 ovarian): 32.4 µM
- TGI (SN12C renal): 30.9 µM
- TGI (SNB-19 CNS): 38.7 µM
- TGI (SR leukemia): 74.5 µM
- TGI (SW-620 colon): 89 µM
- TGI (T-47D breast): 22.1 µM
- TGI (TK-10 renal): 30.9 µM
- TGI (U251 CNS): 32.6 µM
- TGI (UACC-257 melanoma): 32.4 µM
- TGI (UACC-62 melanoma): 19.4 µM
- TGI (UO-31 renal): 27.7 µM

Structure (SMILES): COc1ccc(C2Oc3ccc(Cl)cc3C=C2[N+](=O)[O-])cc1 (configuration not stated)
- TGI (786-0 renal): > 100 µM
- TGI (A549 NSCLC): > 100 µM
- TGI (ACHN renal): > 100 µM
- TGI (BT-549 breast): > 100 µM
- TGI (CAKI-1 renal): > 100 µM
- TGI (CCRF-CEM leukemia): > 100 µM
- TGI (COLO 205 colon): > 100 µM
- TGI (DU-145 prostate): > 100 µM
- TGI (EKVX NSCLC): > 100 µM
- TGI (HCT-116 colon): > 100 µM
- TGI (HCT-15 colon): > 100 µM
- TGI (HL-60(TB) leukemia): > 100 µM
- TGI (HOP-62 NSCLC): > 100 µM
- TGI (HS 578T breast): > 100 µM
- TGI (HT29 colon): > 100 µM
- TGI (IGROV1 ovarian): > 100 µM
- TGI (K-562 leukemia): > 100 µM
- TGI (KM12 colon): > 100 µM
- TGI (LOX IMVI melanoma): > 100 µM
- TGI (M14 melanoma): > 100 µM
- TGI (MALME-3M melanoma): > 100 µM
- TGI (MCF7 breast): > 100 µM
- TGI (MDA-MB-231 breast): > 100 µM
- TGI (MDA-MB-435): > 100 µM
- TGI (MDA-N): > 100 µM
- TGI (MOLT-4 leukemia): > 100 µM
- TGI (NCI-H23 lung): > 100 µM
- TGI (NCI-H460 lung): > 100 µM
- TGI (NCI-H522 lung): > 100 µM
- TGI (NCI/ADR-RES ovarian): > 100 µM
- TGI (OVCAR-3 ovarian): > 100 µM
- TGI (OVCAR-4 ovarian): > 100 µM
- TGI (OVCAR-5 ovarian): > 100 µM
- TGI (OVCAR-8 ovarian): > 100 µM
- TGI (PC-3 prostate): > 100 µM
- TGI (RPMI-8226 leukemia): > 100 µM
- TGI (RXF 393 renal): > 100 µM
- TGI (SF-268 CNS): > 100 µM
- TGI (SF-295 CNS): > 100 µM
- TGI (SK-MEL-28 melanoma): > 100 µM
- TGI (SK-MEL-5 melanoma): > 100 µM
- TGI (SK-OV-3 ovarian): > 100 µM
- TGI (SN12C renal): > 100 µM
- TGI (SNB-19 CNS): > 100 µM
- TGI (SR leukemia): > 100 µM
- TGI (T-47D breast): > 100 µM
- TGI (TK-10 renal): > 100 µM
- TGI (U251 CNS): > 100 µM
- TGI (UACC-257 melanoma): > 100 µM
- TGI (UACC-62 melanoma): > 100 µM
- TGI (UO-31 renal): > 100 µM
